This note sets out measurements from PMC9939319 (Acta Pharmaceutica Sinica. B, 2022).

As a reminder, the EC50 is the concentration that produces a half-maximal response.

The target in the test is TRPA1 (Homo sapiens, UniProt O75762). Nature of the test: calcium flux in TRPA1-overexpressing HEK-293 cells. The class given is cell-based. For orientation: Calcium assays in cells follow changes in intracellular calcium, usually with a dye or a luminescent sensor.
TRPA1, sequence (O75762 whole entry): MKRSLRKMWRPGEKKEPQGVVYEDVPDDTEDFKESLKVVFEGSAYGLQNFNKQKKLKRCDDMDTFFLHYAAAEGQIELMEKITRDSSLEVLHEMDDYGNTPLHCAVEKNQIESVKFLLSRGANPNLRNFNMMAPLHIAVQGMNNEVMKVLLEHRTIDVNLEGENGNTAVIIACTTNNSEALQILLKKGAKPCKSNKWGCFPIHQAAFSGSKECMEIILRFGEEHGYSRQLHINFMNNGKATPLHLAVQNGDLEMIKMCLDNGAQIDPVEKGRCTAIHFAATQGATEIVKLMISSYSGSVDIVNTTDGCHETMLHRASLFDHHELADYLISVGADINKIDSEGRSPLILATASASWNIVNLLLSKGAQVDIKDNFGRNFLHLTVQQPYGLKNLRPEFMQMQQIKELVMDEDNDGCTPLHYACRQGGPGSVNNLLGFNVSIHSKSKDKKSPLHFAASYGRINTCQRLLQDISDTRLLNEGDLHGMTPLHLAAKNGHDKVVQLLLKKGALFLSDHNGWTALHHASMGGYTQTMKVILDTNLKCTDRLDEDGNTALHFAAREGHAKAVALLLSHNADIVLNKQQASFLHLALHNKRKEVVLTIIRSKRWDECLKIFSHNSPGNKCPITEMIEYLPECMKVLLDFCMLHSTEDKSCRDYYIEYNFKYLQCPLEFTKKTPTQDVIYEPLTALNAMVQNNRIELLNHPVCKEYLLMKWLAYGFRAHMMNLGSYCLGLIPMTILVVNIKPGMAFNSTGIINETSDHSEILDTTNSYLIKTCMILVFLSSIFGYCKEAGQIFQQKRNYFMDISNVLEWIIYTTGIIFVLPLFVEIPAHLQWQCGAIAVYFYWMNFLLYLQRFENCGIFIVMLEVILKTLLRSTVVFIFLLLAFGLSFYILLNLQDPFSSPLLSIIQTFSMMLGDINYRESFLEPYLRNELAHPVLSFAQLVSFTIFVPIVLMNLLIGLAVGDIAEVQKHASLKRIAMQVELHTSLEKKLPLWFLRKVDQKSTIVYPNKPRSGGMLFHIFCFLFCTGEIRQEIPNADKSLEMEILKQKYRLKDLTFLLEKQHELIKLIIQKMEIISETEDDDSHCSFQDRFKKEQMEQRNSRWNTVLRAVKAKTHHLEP

As for `CC(C)(C)c1ccc(O)c(C(C)(C)C)c1` [2,4-DTBP], the EC50 is 225 µM.
